Measurements as given in patent US20230355536A1, “OZONE-BASED LOW TEMPERATURE SILICON OXIDE COATING FOR PHARMACEUTICAL APPLICATIONS” (Applied Materials, Inc., priority 2022, published 2023).

Key:
Format in all cases: physicochemical
[1] = FTIR spectrum of API particles before and after coating process; conditions: coated versus uncoated API particles
Description: FIGS. 2A-2B (FIG. 2B is a zoom-in image of FIG. 2A) show the FTIR spectrum of the coated and uncoated acetaminophen API particles.
FIGS. 6A-6B (FIG. 6B is a zoom-in image of FIG. 6A) show the FTIR spectrum of the coated and uncoated theophylline API particles.
FIGS. 9A-9B (FIG. 9B is a zoom-in image of FIG. 9A) show the FTIR spectrum of the coated and uncoated API-1 particles.

[2] = HPLC analysis of API integrity after ozone treatment; conditions: ozone generated with oxygen flow rate of 10, 30 and 50 sccm
Method: To test whether ozone treatment will affect the integrity of the API, the API (acetaminophen) was treated with ozone at various concentrations. Here, ozone was created by an ozone generator with various oxygen flow rates. The lower the oxygen flow rate, the high the ozone concentration is. Specifically, the API (acetaminophen) was treated with ozone generated with an oxygen flow rate of 10 sccm, 30 sccm and 50 sccm. FIGS. 8A-8D show the HPLC analysis of the API (acetaminophen) after ozone treatment. […] As shown in FIGS. 8A-8D, there were no new peaks (impurity) generated after ozone exposure with as low as 10 sccm oxygen flow rate (highest O3 concentration)

[3] = Wetting/dispersity of particles in DI water; conditions: acetaminophen particles dissolved into DI water
Method: The coated API (acetaminophen) particles were dissolved into DI water to test the wetting/dispersity properties of these particles.
As a control group, API (acetaminophen) was also treated with silane to apply a monolayer of silane.

Cn1c(=O)c2[nH]cnc2n(C)c1=O [theophylline, reference compound]
change in FTIR signals before and after the coating process [1]: no significant change

CC(=O)Nc1ccc(O)cc1 [acetaminophen]
new peaks (impurity) in HPLC after ozone exposure [2]: no new peaks
change in FTIR signals before and after the coating process [1]: no significant change
wetting/dispersity [3]: poor wetting/dispersity
